Results from patent publication US20100297023A1, “Lipid” (priority 2006, published 2010).

What was measured:
siRNA = assay: Agarose gel retardation assay of siRNA with lipid; format: physicochemical; details: for optimal lipid:siRNA ratio to completely retard the siRNA: precast 0.8% agarose gel, anti-apoB siRNA
Description: Gel retardation assay. In order to define the optimal ratio between lipid:siRNA to achieve full complexation of the nucleic acid which is manifested by a complete retardation in an electrical field, different ratios of lipid:siRNA (0-3) were produced and aliquots run on precast 0.8% agarose gels (Invitrogen). For this purpose, 1 μg siRNA were pipetted into 0.5 mL eppendorf tubes complemented with distilled water to 10 μL. The appropriate amount of lipid from a stock in water (2 mg/mL) were added to generate lipid:siRNA ratios between 0 and 3. All samples were vortexed and the whole reaction mixture pipetted to the individual wells of 0.8% pre-cast agarose gels and run at 50V/10 mA for 20 mins (FIG. 2). […] Therefore, for all future in vivo experiments, a ratio of 3:1 (lipid:siRNA) was chosen.

mouse apoB gene = assay: Down-regulation of the apoB gene in vivo (liver, real time PCR); design: species or system Balb/C mice; details: tail vein, liver at 48 h
Description: Lipid-siRNA AB nanoparticles with CDAN and DODAG were prepared at final lipid:siRNA ratios of 2.5 and 3, respectively. These values correspond to the optimal ratios to completely retard the siRNA on a precast 0.8% agarose gel (Invitrogen). All lipid-siRNA AB nanoparticle complexes were made in water at a final concentration of 0.5 mg siRNA/mL in water.
Experimental The appropriate amounts of CDAN and DODAG from stock solutions in water (5 mg/mL and 2 mg/mL, respectively) were pipetted into a 25 mL falcon plastic tube. The appropriate amount of anti-apoB siRNA from a stock solution of 10 mg/mL was added slowly to the respective lipid solution while vortexing the falcon tube. The appropriate amount of a solution of trehalose (100%, w/v in water) was added and the sample vortexed heavily for 10 s. The samples were then sonicated in a water bath for 15 mins to generate homogenous emulsions. 15 mins prior to the injection of the samples into Balb/C mice, 1.5M NaCl was added so that each lipid-siRNA AB nanoparticle preparation contained a final concentration of 150 mM NaCl. 200 μL aliquots were injected via tail vein and the animals left for 48 h before sacrificing. The liver was extracted and immediately put into a solution of RNAlater (Ambion). The total RNA was extracted using RNAeasy columns (Qiagen), and quantified both by UV absorption (λ=260 nm) and by densiometry of the bands on a 2% agarose formaldehyde gel.
1 μg of the total RNA was reversed transcribed to generate cDNA in a total volume of 20 μL. After completion of the reaction, the total reaction volume was supplemented to 40 μL with water. From this solution, 1 μL was used to do real time PCR (Sybr green) using the forward primer 5′-[…] (SEQ ID NO: 26) and the reverse primer 5′-[…] (SEQ ID NO:27) on an Applied Biosystem 7700 machine. The data were analysed using the ABI prism software (FIG. 4).

CyPB mRNA in HeLa cells = assay: Down-regulation of the cyclophilin B gene in vitro (real time PCR); format: cell-based, human; details: lipid:siRNA ratios lower than 13:1 (w/w)
Description: Experimental 4 μg (3.74 μL) siRNA were complemented with 770 μL OptiMEM and 52 μg (26 μL) DODAG (2 mg/mL, water) added under vortexing. The DODAG-siRNA AB nanoparticles were allowed to stand for 5 mins at room temperature. 200 μL of the DODAG-siRNA AB nanoparticle solution were pipetted to two wells of a six well plate containing HeLa cells (250,000), and the cells incubated at 37° C. for 3 h under CO2 regime. The cells were then washed with warm PBS and incubated for another 48 h before lysing and extracting the total RNA using RNAeasy extraction columns (Qiagen). The same protocol was employed with CDAN. For DOGS, the protocol as recommended by the manufacturer was applied. The quality of the total RNA was verified on a 2% agarose formaldehyde gel, and the RNA quantified by UV (260 nm). 1 μg RNA of each sample was reverse transcribed to generate cDNA which was real time PCRed using standard protocols with Sybr green. The CyPB levels were standardized to β-actin levels for each sample (FIG. 3).

Row | Compound | optimal lipid:siRNA ratio to completely retard the siRNA (siRNA) | down-regulation of the apoB mRNA in vivo (mouse apoB gene; 5 mg siRNA/kg animal) | down-regulation of the apoB mRNA in vivo (mouse apoB gene; 15 mg siRNA/kg animal) | N/P ratio at which the movement of siRNA was entirely retarded (siRNA; agarose gel, assuming cationic charge of 1.5 per DODAG) | specific down-regulation of CyPB in vitro (CyPB mRNA in HeLa cells)
1 | CC(C)CCC[C@@H](C)[C@H]1CC[C@H]2[C@@H]3CC=C4C[C@@H](OC(=O)NCCNCCCNCCN)CC[C@]4(C)[C@H]3CC[C@]12C [CDAN, N^1-cholesteryloxycarbonyl-3,7-diazanonane-1,9-diamine] | 2.5 | did not mediate down-regulation | did not mediate down-regulation |  | 
2 | CCCCCCCCCCCCCCCCCCN(CCCCCCCCCCCCCCCCCC)C(=O)CNC(=O)CCNCCCNCCN [DODAG, N′,N′-dioctadecyl-N-4,8-diaza-10-aminodecanoylglycine amide] | 3 | > 60% |  | 1.8 | unsuccessful
